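Protocol summary: plate cells (96-well), add compound at 5 concentrations, incubate 48 h, interpolate endpoints linearly. GI50 marks 50% less growth.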 Calls of active or inactive are those of the source. Cut-off read from the data, not from the text of the source: active = GI50 up to about 1.1 µM and inactive = higher.
Experiments:
Assay in all cases: NCI-60 cell line screen, 48 h
IGROV-1 = system: IGROV-1
UACC-257 = system: UACC-257
NCI-H460 = system: NCI-H460
NCI-H226 = system: NCI-H226
KM12 = system: KM12
SK-MEL-2 = system: SK-MEL-2
SK-MEL-5 = system: SK-MEL-5
OVCAR-5 = system: OVCAR-5
HCC 2998 = system: HCC 2998
U-251 = system: U-251
SW-620 = system: SW-620
CAKI-1 = system: CAKI-1
EKVX = system: EKVX
A498 = system: A498
SK-OV-3 = system: SK-OV-3
LOX IMVI = system: LOX IMVI
OVCAR-8 = system: OVCAR-8
OVCAR-3 = system: OVCAR-3
HOP-62 = system: HOP-62

SMILES | GI50 (IGROV-1) | GI50 (UACC-257) | GI50 (NCI-H460) | GI50 (NCI-H226) | GI50 (KM12) | GI50 (SK-MEL-2) | GI50 (SK-MEL-5) | GI50 (OVCAR-5) | GI50 (HCC 2998) | GI50 (U-251) | GI50 (SW-620) | GI50 (CAKI-1) | GI50 (EKVX) | GI50 (A498) | GI50 (SK-OV-3) | GI50 (LOX IMVI) | GI50 (OVCAR-8) | GI50 (OVCAR-3) | GI50 (HOP-62)
Nn1c(CCCCCCCCc2nnc(COc3ccc(Cl)cc3Cl)n2N)nnc1COc1ccc(Cl)cc1Cl | 6.43 µM (inactive) | 61.5 µM (inactive) | 63.8 µM (inactive) | 63.5 µM (inactive) | 40 µM (inactive) | 42 µM (inactive) | 38.5 µM (inactive) | 35.6 µM (inactive) | 56.6 µM (inactive) | 62.4 µM (inactive) | > 100 µM (inactive) | 41.9 µM (inactive) | 38.3 µM (inactive) | 45.3 µM (inactive) | > 10 µM (inactive) |  |  |  | 
Cc1nc2c(s/c(=N\N)n2-c2ccccc2)c(=O)n1C | > 100 µM (inactive) | > 100 µM (inactive) | > 100 µM (inactive) | > 100 µM (inactive) | 80.2 µM (inactive) | > 100 µM (inactive) | > 100 µM (inactive) | > 100 µM (inactive) | > 100 µM (inactive) | > 100 µM (inactive) | > 100 µM (inactive) | > 100 µM (inactive) | > 100 µM (inactive) | > 100 µM (inactive) | > 100 µM (inactive) | > 100 µM (inactive) | > 100 µM (inactive) |  | 
O=C(O)CNS(=O)(=O)c1ccc(NC(=O)c2cccc([N+](=O)[O-])c2)cc1 | > 100 µM (inactive) | > 100 µM (inactive) | > 100 µM (inactive) | > 100 µM (inactive) | > 100 µM (inactive) | > 100 µM (inactive) | > 100 µM (inactive) | > 100 µM (inactive) | > 100 µM (inactive) | > 100 µM (inactive) | > 100 µM (inactive) | > 100 µM (inactive) | > 100 µM (inactive) | > 100 µM (inactive) | > 100 µM (inactive) | > 100 µM (inactive) | > 100 µM (inactive) | > 100 µM (inactive) | 
C=CCN(Cc1ccncc1)C(=O)C(O)(c1ccccc1)c1ccccc1 | > 100 µM (inactive) | 79.3 µM (inactive) |  | > 100 µM (inactive) | 35.2 µM (inactive) |  | 62.8 µM (inactive) | > 100 µM (inactive) | > 100 µM (inactive) | 76.2 µM (inactive) | > 100 µM (inactive) | 31.5 µM (inactive) | 35.9 µM (inactive) |  | > 100 µM (inactive) | 97.9 µM (inactive) | 86.9 µM (inactive) | 50.6 µM (inactive) | > 100 µM (inactive)
C/C=C1\CN2CCc3c([nH]c4ccccc34)C2C=C1CCO (stereo not drawn) | > 340 µM (inactive) | > 340 µM (inactive) | > 340 µM (inactive) | > 340 µM (inactive) | > 340 µM (inactive) | > 340 µM (inactive) | > 340 µM (inactive) | > 340 µM (inactive) | > 340 µM (inactive) | > 340 µM (inactive) | > 340 µM (inactive) | > 340 µM (inactive) | > 340 µM (inactive) |  | > 340 µM (inactive) | > 340 µM (inactive) | > 340 µM (inactive) | 231 µM (inactive) | > 340 µM (inactive)
CNC(=O)N1CN(c2ccccc2)C2(CCN(Cc3ccccc3)CC2)C1=O | 5 µM (inactive) | > 100 µM (inactive) |  | > 100 µM (inactive) | 29.9 µM (inactive) |  | 56.1 µM (inactive) | 1.05 µM (active) | 9.84 µM (inactive) | > 100 µM (inactive) | 46.1 µM (inactive) | > 100 µM (inactive) | 74.6 µM (inactive) |  | 4.18 µM (inactive) | 50.5 µM (inactive) | > 100 µM (inactive) | > 100 µM (inactive) | > 100 µM (inactive)
Cc1ccc(NC(=O)COC(=O)c2cccc3c(=O)c4ccccc4[nH]c23)cc1 | 44.8 µM (inactive) | 39.9 µM (inactive) | 35.2 µM (inactive) | 26.5 µM (inactive) | 22.1 µM (inactive) |  | 21.6 µM (inactive) |  | 37.6 µM (inactive) | 29.4 µM (inactive) | 21.5 µM (inactive) | 29.2 µM (inactive) | 16.8 µM (inactive) | 19.1 µM (inactive) | 25.5 µM (inactive) | 16.9 µM (inactive) | 35.3 µM (inactive) | 54 µM (inactive) | 60.5 µM (inactive)
CCOC(CCCN1CCC2(CC1)C(=O)N(C)CN2c1ccccc1)(OCC)c1ccc(F)cc1 | 8.41 µM (inactive) | 6.14 µM (inactive) |  | 18.3 µM (inactive) | 15.3 µM (inactive) |  | 3.45 µM (inactive) | 7.89 µM (inactive) | 8.85 µM (inactive) | 12.2 µM (inactive) | 10.4 µM (inactive) | 6.59 µM (inactive) | 2.14 µM (inactive) |  | 21.8 µM (inactive) | 16.1 µM (inactive) | 15.4 µM (inactive) | 13.6 µM (inactive) | 4.6 µM (inactive)
O=C(OCCOCCOC(=O)c1c[nH]cc1-c1ccccc1)c1c[nH]cc1-c1ccccc1 | 21.3 µM (inactive) | 18.7 µM (inactive) | 21.2 µM (inactive) | 19.2 µM (inactive) | 20.2 µM (inactive) |  | 16.8 µM (inactive) | 25.8 µM (inactive) | 21.9 µM (inactive) | 17.9 µM (inactive) | 28.4 µM (inactive) | 26.5 µM (inactive) | 26.7 µM (inactive) | 19.3 µM (inactive) | 35.1 µM (inactive) | 16.4 µM (inactive) | 29.4 µM (inactive) | 22.1 µM (inactive) | 17.3 µM (inactive)
COC1OC(COS(=O)(=O)c2ccc(C)cc2)C(O)C(OS(=O)(=O)c2ccc(C)cc2)C1OS(=O)(=O)c1ccc(C)cc1 (stereo not drawn) | > 100 µM (inactive) | > 100 µM (inactive) | > 100 µM (inactive) | > 100 µM (inactive) | > 100 µM (inactive) | > 100 µM (inactive) | > 100 µM (inactive) | > 100 µM (inactive) | > 100 µM (inactive) | > 100 µM (inactive) | 16 µM (inactive) | 1.03 µM (active) | > 100 µM (inactive) |  | > 100 µM (inactive) |  | > 100 µM (inactive) | > 100 µM (inactive) | > 100 µM (inactive)
CC1(C(=O)NCCN(CCNC(=O)C2(C)CC3(C)CC(C)(C2)C(=O)NC3=O)CCNC(=O)C2(C)CC3(C)CC(C)(C2)C(=O)NC3=O)CC2(C)CC(C)(C1)C(=O)NC2=O (stereo not drawn) | > 100 µM (inactive) | > 100 µM (inactive) | > 100 µM (inactive) |  | > 100 µM (inactive) | > 100 µM (inactive) |  |  | > 100 µM (inactive) | > 100 µM (inactive) | > 100 µM (inactive) | > 100 µM (inactive) | > 100 µM (inactive) | > 100 µM (inactive) | > 100 µM (inactive) |  | > 100 µM (inactive) | > 100 µM (inactive) | > 100 µM (inactive)
N#CNc1nc(N)c(-c2ccc(Cl)cc2)c(C(=O)Nc2nccs2)n1 | > 100 µM (inactive) | > 100 µM (inactive) | > 100 µM (inactive) | > 100 µM (inactive) | > 100 µM (inactive) | > 100 µM (inactive) | > 100 µM (inactive) | > 100 µM (inactive) | > 100 µM (inactive) | > 100 µM (inactive) | > 100 µM (inactive) | > 100 µM (inactive) | > 100 µM (inactive) | > 100 µM (inactive) |  | > 100 µM (inactive) | > 100 µM (inactive) | > 100 µM (inactive) | > 100 µM (inactive)
NS(=O)(=O)c1ccc(NC(=O)c2cccc3c(Nc4ccc(S(N)(=O)=O)cc4)c4ccccc4nc23)cc1 | > 100 µM (inactive) | 32.9 µM (inactive) | > 100 µM (inactive) |  | 4.47 µM (inactive) | 20 µM (inactive) | 41.2 µM (inactive) | > 100 µM (inactive) |  | 21.2 µM (inactive) | 29.4 µM (inactive) | 38.2 µM (inactive) | > 100 µM (inactive) | > 100 µM (inactive) | > 100 µM (inactive) | 5.55 µM (inactive) | 48.5 µM (inactive) | 13.6 µM (inactive) | > 100 µM (inactive)
Cc1nn(C(=O)CC(=O)Nc2ccc(Cl)cc2)c(C)c1/N=N/c1ccccc1C(=O)O | > 100 µM (inactive) | > 100 µM (inactive) | > 100 µM (inactive) |  | > 100 µM (inactive) | > 100 µM (inactive) | > 100 µM (inactive) | > 100 µM (inactive) | > 100 µM (inactive) | > 100 µM (inactive) | > 100 µM (inactive) | > 100 µM (inactive) | > 100 µM (inactive) | > 100 µM (inactive) | > 100 µM (inactive) | > 100 µM (inactive) | > 100 µM (inactive) | > 100 µM (inactive) | > 100 µM (inactive)
CC(=O)n1c2ccccc2c2nc3nc(Oc4ccc(C)cc4)c4ccccc4c3cc21 | > 100 µM (inactive) | > 100 µM (inactive) | > 100 µM (inactive) | > 100 µM (inactive) | > 100 µM (inactive) | > 100 µM (inactive) | > 100 µM (inactive) | > 100 µM (inactive) | > 100 µM (inactive) | 41.6 µM (inactive) | > 100 µM (inactive) | > 100 µM (inactive) | > 100 µM (inactive) |  | > 100 µM (inactive) | > 100 µM (inactive) | > 100 µM (inactive) | > 100 µM (inactive) | 57 µM (inactive)
O=C1CCC2(c3ccc(Cl)cc3)Nc3cc(Cl)ccc3N12 (stereo not drawn) | 13.6 µM (inactive) | 13.6 µM (inactive) |  |  | 12 µM (inactive) | 11.4 µM (inactive) | 12.4 µM (inactive) |  |  | 11.7 µM (inactive) | 6.14 µM (inactive) |  | 15 µM (inactive) | 12.1 µM (inactive) | 17.6 µM (inactive) | 12.1 µM (inactive) | 7.76 µM (inactive) | 10.4 µM (inactive) | 15.5 µM (inactive)

Source: ChEMBL document CHEMBL1201862, “PubChem BioAssay data set” (2004)
